Data published in patent US6271242A, “Method for treating cancer using a tyrosine protein kinase inhibitor” (Bristol-Myers Squibb Co., priority 1992, dated 2001).
“Also recorded” adds a separate entry of the source.

Assays:
Z82-711 cells = test: Reversion of transformed phenotype, gp145^trkC + NT-3 transformed NIH3T3 cells; type: cell-based
[1] = system: NIH3T3 cells co-transfected with pFL20 (gp145^trkC) and pLL43 (NT-3); test: Focus formation of NIH3T3 cells co-transfected with gp145^trkC and NT-3 plasmids; type: cell-based; details: 100 nM K252a; pFL20 (gp145^trkC) + pLL43 (NT-3)
pp60^v-src [2] = test: Tyrosine phosphorylation of pp60^v-src in C74-321 cells (Western blot); type: cell-based; details: concentrations as high as 1 μM
B38-941 cells = test: Reversion of morphologic transformation, trk5-transformed NIH3T3 cells; type: cell-based; details: 100 nM K252a, as little as 36 hours
Z82-432 cells = test: Reversion of transformed phenotype, gp145^trkB + BDNF transformed NIH3T3 cells; type: cell-based
PDGF receptor = test: PDGF-induced tyrosine phosphorylation of PDGF receptor in NIH3T3 cells (Western blot); type: cell-based; details: 100 nM K252a, 100 ng/ml PDGF
NIH3T3 cells = test: Toxicity and growth of untransfected NIH3T3 and NIH3T3-derived cells
gp145^trkC = test: NT-3-induced tyrosine phosphorylation of gp145^trkC in R4-31 cells (Western blot); type: cell-based; details: 100 nM K252a, 100 ng/ml NT-3, R4-31 (RA-31) cells
[3] = system: NIH3T3 cells co-transfected with pFRK44 (gp145^trkB) and pLL42 (BDNF); test: Focus formation of NIH3T3 cells co-transfected with gp145^trkB and BDNF plasmids; type: cell-based; details: 100 nM K252a
[4] = system: NIH3T3 cells co-transfected with pDM69 (gp140^trk) and pLTRSNGF (NGF); test: Focus formation of NIH3T3 cells co-transfected with gp140^trk and NGF plasmids; type: cell-based; details: 100 nM K252a
pp60^v-src [5] = test: In vitro tyrosine protein kinase assay of pp60^v-src immunoprecipitates (C74-321 cells); type: biochemical; details: concentrations as high as 10 μM
PC12 cells [6] = test: NGF-induced neuronal differentiation (neurite outgrowth) of PC12 cells; type: cell-based; details: Rattus norvegicus, PC-12, 72 h; 50 ng/ml NGF, three days; read-out: IC50, block of appearance of neuritic processes in PC12 cells exposed to NGF
human EGF receptor = test: EGF-induced tyrosine phosphorylation of EGF receptor in F19-91 cells (Western blot); type: cell-based; details: 100 nM K252a, 100 ng/ml EGF
PC12 cells [7] = test: Proliferation of PC12 cells; type: cell-based, rat; details: submicromolar concentrations; data not shown
gp140^trk = type: cell-based, rat; details: 100 nM K252a, 100 ng/ml NGF, PC12 cells
[8] = Morphology and toxicity, v-fms-transformed NIH3T3 cells; type: cell-based; details: mouse, v-fms transformed nih3t3 cells; v-fms transformed cells, no signs of morphologic reversion; data not shown; read-out: concentration at which toxic effect appears
C51-642 cells = test: as above; type: cell-based
Z99-541 cells = test: Reversion of transformed phenotype, gp140^trk + NGF transformed NIH3T3 cells; type: cell-based
gp145^trkB = test: BDNF-induced tyrosine phosphorylation of gp145^trkB in Z52-17 cells (Western blot); type: cell-based; details: 100 nM K252a, 100 ng/ml BDNF
PC12 cells [9] = test: FGF-induced neurite formation of PC12 cells; type: cell-based, rat; details: concentrations as high as 300 nM; 50 ng/ml acidic and basic FGFs, three days
106-632 cells = test: Reversion of morphologic transformation, trk-transformed NIH3T3 cells; type: cell-based; details: 100 nM K252a, as little as 36 hours
C74-321 cells = test: Morphology and toxicity, v-src-transformed NIH3T3 cells; type: cell-based
[10] = as above; type: cell-based; details: mouse, v-src transformed nih3t3 cells; v-src transformed cells, no signs of morphologic reversion; data not shown; read-out: concentration at which toxic effect appears

Compound: COC(=O)[C@@]1(O)C[C@H]2O[C@]1(C)n1c3ccccc3c3c4c(c5c6ccccc6n2c5c31)C(=O)NC4 (single isomer, unassigned) [K252a, (8R*,9S*,11S*)-(-)-9-hydroxy-9-methoxycarbonyl-8-methyl-2,3,9,10-tetrahydro-8,11-epoxy-1H,8H,11H-2,7b,11a-triazadibenzo(a,g) cycloocta(c,d,e)triinden-1-one]
- reversion of transformed phenotype (Z82-711 cells; 30 nM K252a, data not shown): much more limited effect
- reversion of transformed phenotype (Z82-711 cells; 100 nM K252a, 2 to 4 days): completely reverted
- Transforming Activity [1]: 0 Foci per 10^5 cells
- inhibitory effect on levels of tyrosine phosphorylation of pp60^v-src (pp60^v-src [2]): did not have any inhibitory effect
- reversion of transformed phenotype (B38-941 cells): completely reverted
- reversion of transformed phenotype (Z82-432 cells; 30 nM K252a, data not shown): much more limited effect
- reversion of transformed phenotype (Z82-432 cells; 100 nM K252a, 2 to 4 days): completely reverted
- phosphorylation on tyrosine residues of the PDGF receptor (PDGF receptor): no effect
- effect on growth properties / proliferation rate of the cells (NIH3T3 cells; 300 nM or lower): not observed; also recorded: no significant effect
- detectable toxic effects (NIH3T3 cells; concentrations as high as 300 nM, NIH3T3-derived cells): nor elicit any detectable toxic effects
- toxicity to cells (NIH3T3 cells; micromolar concentrations, particularly untransfected NIH3T3 cells, data not shown): considerably toxic
- phosphorylation on tyrosine residues of ligand-activated gp145^trkC (gp145^trkC): completely abolished
- Transforming Activity [3]: 0 Foci per 10^5 cells
- Transforming Activity [4]: 0 Foci per 10^5 cells
- inhibitory effect on catalytic activity of pp60^v-src (pp60^v-src [5]): did not have any significant inhibitory effect
- IC50 (PC12 cells [6]): ~40 nM
- phosphorylation on tyrosine residues of the EGF receptor (human EGF receptor): no effect
- inhibitory effect on proliferation of PC12 cells (PC12 cells [7]): did not have a significant inhibitory effect
- NGF-induced phosphorylation of gp140^trk on tyrosine residues (gp140^trk): completely abolished
- MCC [8]: ~1000 nM
- effect on morphology of v-fms transformed cells (C51-642 cells): no effect
- effect on transformed phenotype of v-fms cells (C51-642 cells; concentrations as high as 1 μM): no effect
- reversion of transformed phenotype (Z99-541 cells; 30 nM K252a, data not shown): much more limited effect
- reversion of transformed phenotype (Z99-541 cells; 100 nM K252a, 2 to 4 days): completely reverted
- phosphorylation on tyrosine residues of ligand-activated gp145^trkB (gp145^trkB): completely abolished
- effect on induction of neurite formation by FGF (PC12 cells [9]): no detectable effect
- reversion of transformed phenotype (106-632 cells): completely reverted
- effect on morphology of v-src transformed cells (C74-321 cells): no effect
- effect on transformed phenotype of v-src cells (C74-321 cells; concentrations as high as 1 μM): no effect
- MCC [10]: ~1000 nM
